From ChEMBL document CHEMBL5500393, “Discovery and Optimization of Novel SaFabI Inhibitors as Specific Therapeutic Agents for MRSA Infection” (J Med Chem, 2024) come the findings set out here.

Data set [1] concerns the target T1, Enoyl-[acyl-carrier-protein] reductase [NADPH] FabI (Staphylococcus aureus) (UniProt Q6GI75).
T1 sequence (whole entry): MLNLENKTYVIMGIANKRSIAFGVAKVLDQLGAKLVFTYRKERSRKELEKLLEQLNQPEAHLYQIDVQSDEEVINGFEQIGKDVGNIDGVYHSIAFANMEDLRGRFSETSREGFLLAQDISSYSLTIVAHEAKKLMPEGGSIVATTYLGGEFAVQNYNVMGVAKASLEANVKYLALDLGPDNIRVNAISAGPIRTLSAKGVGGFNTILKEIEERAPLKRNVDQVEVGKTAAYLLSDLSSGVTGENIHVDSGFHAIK
Kind of data set: Inhibition of N-terminal his 6 tagged Staphylococcus aureus Fabi (1 to […] residues) expressed in Escherichia coli BL21 at 1 uM incubated for 30 mins in presence of NADPH by fluorescence based microplate reader analysis relative to control.

The test system of data set [2] is Staphylococcus aureus. Nature of the data set: In vivo antibacterial activity against methicilin-resistant Staphylococcus aureus ATCC33591 infected in BALB/c mouse skin infection model assessed as reduction in skin lesions at 10 mg/kg administered daily for 4 days (reference value: 51.6 mm2). The data set is classed as functional. The settings on record: time 4 day.

In data set [3] the test system is Staphylococcus aureus. Nature of the data set: In vivo antibacterial activity against methicilin-resistant Staphylococcus aureus ATCC33591 infected in BALB/c mouse skin infection model assessed as reduction in bacterial load at 10 mg/kg administered daily for 4 days. The settings on record: time 4 day. In kind it is functional.
The subject of data set [4] is Staphylococcus aureus. Kind of data set: In vivo antibacterial activity against methicilin-resistant Staphylococcus aureus ATCC33591 infected in BALB/c mouse skin infection model assessed as alleviation of skin lesions at 10 mg/kg administered daily for 4 days by H and E staining based analysis. The data set is classed as functional, organism-based. The settings on record: time 4.0 day.

For data set [5], the system named is Staphylococcus aureus. Kind of data set: In vivo antibacterial activity against methicilin-resistant Staphylococcus aureus ATCC33591 infected in BALB/c mouse skin infection model assessed as log reduction in bacterial count at 10 mg/kg administered daily for 4 days. The settings on record: time 4 day. The data set is classed as functional.
Data set [6] deals with Staphylococcus aureus. Nature of the data set: In vivo antibacterial activity against methicilin-resistant Staphylococcus aureus ATCC33591 infected in BALB/c mouse skin infection model assessed as decrease in lesion size at 10 mg/kg administered daily for 4 days (reference value: 43.4 mm2). The settings on record: time 4 day. The data set is classed as functional.
The nature of data set [7]: Drug concentration in BALB/c mouse plasma at 800 mg/kg, po measured after 1 hr by LC-MS analysis. The data set is classed as ADME, organism-based.
The test system of data set [8] is Staphylococcus aureus. Nature of the data set: In vivo antibacterial activity against methicilin-resistant Staphylococcus aureus ATCC33591 infected in BALB/c mouse skin infection model assessed as reduction in number of inflammatory cells at 20 mg/kg administered daily for 4 days by H and E staining based analysis. The settings on record: time 4.0 day. In kind it is functional, organism-based.

Data set [9] has as its target T1, Enoyl-[acyl-carrier-protein] reductase [NADPH] FabI (Staphylococcus aureus). Nature of the data set: Binding affinity to N-terminal his 6 tagged Staphylococcus aureus Fabi (1 to […] residues) expressed in Escherichia coli BL21 assessed as change in melting temperature at 80 uM incubated for 20 mins in presence of NADPH by differential scanning fluorescence assay. On the technique in general: In DSF a fluorescence change marks the thermal transition of the protein.

The subject of data set [10] is Staphylococcus aureus. Nature of the data set: In vivo antibacterial activity against methicilin-resistant Staphylococcus aureus ATCC33591 infected in BALB/c mouse skin infection model assessed as adverse effect at 5 to 20 mg/kg administered daily for 4 days. In kind it is functional, organism-based. The settings on record: dose 5-20 mg/kg, time 4.0 day.
Data set [11] relates to Staphylococcus aureus. Kind of data set: In vivo antibacterial activity against methicilin-resistant Staphylococcus aureus ATCC33591 infected in BALB/c mouse skin infection model assessed as effect on body weight loss at 5 to 20 mg/kg administered daily for 4 days. The data set is classed as functional, organism-based. The settings on record: dose 5-20 mg/kg, time 4.0 day.

Data set [12] deals with Staphylococcus aureus. Nature of the data set: In vivo antibacterial activity against methicilin-resistant Staphylococcus aureus ATCC33591 infected in BALB/c mouse skin infection model assessed as as appearance of inflammatory cell infiltrates at 10 mg/kg administered daily for 4 days by H and E staining based analysis. The data set is classed as functional, organism-based. The settings on record: time 4.0 day.

In data set [13] the test system is Staphylococcus aureus. Kind of data set: Antimicrobial activity against methicillin-susceptible Staphylococcus aureus ATCC25923 measured after 24 hrs by CLSI protocol based microdilution method. The data set is classed as functional.
Data set [14] can be described thus: Hemolytic activity in sheep erythrocytes assessed as hemolysis at 256 ug/ml incubated for 1 hr by microplate reader based analysis relative to control. In kind it is toxicity, cell-based, Ovis aries, Erythrocyte. The settings on record: at 256 µg/mL, read-out: Activity.
The subject of data set [15] is Staphylococcus aureus. Nature of the data set: In vivo antibacterial activity against methicilin-resistant Staphylococcus aureus ATCC33591 infected in BALB/c mouse skin infection model assessed as reduction in bacterial load administered daily for 4 days. The data set is classed as functional, organism-based. The settings on record: dose 5-20 mg/kg, time 4.0 day.

For data set [16], the system named is Staphylococcus aureus. Kind of data set: In vivo antibacterial activity against methicilin-resistant Staphylococcus aureus ATCC33591 infected in BALB/c mouse skin infection model assessed as damaged tissue at 10 mg/kg administered daily for 4 days by H and E staining based analysis. The data set is classed as functional, organism-based. The settings on record: time 4.0 day.

The subject of data set [17] is Staphylococcus aureus. Kind of data set: In vivo antibacterial activity against methicilin-resistant Staphylococcus aureus ATCC33591 infected in BALB/c mouse skin infection model assessed as decrease in lesion size at 20 mg/kg administered daily for 4 days (reference value: 43.4 mm2). In kind it is functional. The settings on record: time 4 day.
In data set [18] the test system is Staphylococcus aureus. Nature of the data set: In vivo antibacterial activity against methicilin-resistant Staphylococcus aureus ATCC33591 infected in BALB/c mouse skin infection model assessed as restoration of cell morphology at 20 mg/kg administered daily for 4 days by H and E staining based analysis. The settings on record: time 4.0 day. In kind it is functional, organism-based.

Data set [19] concerns Staphylococcus aureus. Kind of data set: In vivo antibacterial activity against methicilin-resistant Staphylococcus aureus ATCC33591 infected in BALB/c mouse skin infection model assessed as reduction in bacterial load at 20 mg/kg administered daily for 4 days. In kind it is functional. The settings on record: time 4 day.
Data set [20] has as its system Staphylococcus aureus. Nature of the data set: In vivo antibacterial activity against methicilin-resistant Staphylococcus aureus ATCC33591 infected in BALB/c mouse skin infection model assessed as reduction in bacterial load at 5 mg/kg administered daily for 4 days. In kind it is functional. The settings on record: time 4 day.
Data set [21] deals with Staphylococcus aureus. Nature of the data set: In vivo antibacterial activity against methicilin-resistant Staphylococcus aureus ATCC33591 infected in BALB/c mouse skin infection model assessed as reduction in area of injury at 20 mg/kg administered daily for 4 days by H and E staining based analysis. The data set is classed as functional, organism-based. The settings on record: time 4.0 day.

For data set [22], the system named is Cell membrane. Kind of data set: Induction of cell membrane damage in methicillin-resistant Staphylococcus aureus ATCC33591 assessed as appearance of inward wrinkling in cell surface at 1 times MIC measured after 30 mins by TEM analysis. The data set is classed as cell membranes.
The test system of data set [23] is Staphylococcus aureus. Nature of the data set: In vivo antibacterial activity against methicilin-resistant Staphylococcus aureus ATCC33591 infected in BALB/c mouse skin infection model assessed as decrease in lesion size at 5 mg/kg administered daily for 4 days (reference value: 43.4 mm2). In kind it is functional. The settings on record: time 4 day.
Data set [24] has as its system Cell membrane. Nature of the data set: Induction of cell membrane permeability in methicillin-resistant Staphylococcus aureus ATCC33591 assessed as fold increase in fluorescence intensity at 1 times MIC measured after 30 mins by Annexin V-FITC staining based analysis. The data set is classed as cell membranes.
Data set [25] has as its system Staphylococcus aureus. Nature of the data set: Antimicrobial activity against […] Staphylococcus aureus ATCC33591 measured after 24 hrs by CLSI protocol based microdilution method. The data set is classed as functional. On the technique in general: Dilution methods test growth across graded concentrations, often in twofold steps.

In brackets after ≈: the same amount, converted by molar mass. Activity calls are given as the source filed them. No cut-off for these calls is given here.

Take `Cc1c(Br)cccc1N1CC(c2nc3ccccc3n2C)CC1=O` (configuration not stated): in data set [1], the inhibition was 88.9%. Also, the Activity is 27.5 mm2 with Staphylococcus aureus [2]; 20.9 mm2 with Staphylococcus aureus [6]; “Dose-Dependent Effect” with Staphylococcus aureus [15]; 13 mm2 in the data set on Staphylococcus aureus [17]; 31.1 mm2 with Staphylococcus aureus [23]. Moreover, the “log(activity)” value in the data set with Staphylococcus aureus [3] is -4.5; with Staphylococcus aureus [5] it was 4.9; with Staphylococcus aureus [19] it was -6.2; with Staphylococcus aureus [20], -1.8. Further, the outcome with Staphylococcus aureus [4], with Staphylococcus aureus [8], with Staphylococcus aureus [12], in the data set with Staphylococcus aureus [16], with Staphylococcus aureus [18] and with Staphylococcus aureus [21] was Active. For the same molecule, in the data set with Cell membrane [22], the outcome was Active. This molecule also came in with a concentration at 1 h in data set [7] of 53600 ng/mL. Further, the ΔTm in data set [9] was 11.8 °C. The outcome in the data set with Staphylococcus aureus [10] and in the data set with Staphylococcus aureus [11] was inactive. For the same molecule, the MIC in the data set on Staphylococcus aureus [13] and with Staphylococcus aureus [25] was 1 µg/mL (≈ 2.6 µM) throughout. For the same molecule, in data set [14], the hemolysis at 1 h, 256 ug/ml was found to be 9.9%. In addition, in the data set on Cell membrane [24], the fold change (FC) was found to be 2.6.

Consider `COc1c(Br)cccc1N1CC(c2nc3ccccc3n2C)CC1=O` (configuration not stated), for which, in [1], the inhibition amounted to 89.6%. For the same molecule, the concentration at 1 h in [7] was 32700 ng/mL. Moreover, the values for the MIC in the data set with Staphylococcus aureus [13] and with Staphylococcus aureus [25] were 2 µg/mL (≈ 5 µM) and 1 µg/mL (≈ 2.5 µM), respectively. Further, the hemolysis at 1 h, 256 ug/ml in data set [14] came out at 8.1%. Also, the result in the data set on Cell membrane [22] was Active. In the data set with Cell membrane [24], the fold change (FC) turned out to be 2.4.

A word on the inhibition: it is the relative decrease from the control value, in per cent. The term ΔTm denotes the change in melting temperature against a reference sample. The MIC is the lowest concentration found to suppress growth. A high value points to a need for much substance.
